Measured values reported in ChEMBL document CHEMBL2086221, “Armeniaspiroles, a new class of antibacterials: Antibacterial activities and total synthesis of 5-chloro-Armeniaspirole A” (Bioorg Med Chem Lett, 2012).
The source made the active and inactive calls. The calls are words filed in the database; no cut-off is given here.

Assays:
[1] = tested on: Pseudomonas aeruginosa; assay: Antibacterial activity against Pseudomonas aeruginosa ATCC 27853; format: functional
[2] = tested on: Streptococcus pneumoniae; assay: Bacteriostatic activity against penicillin-resistant Streptococcus pneumoniae DSM 11865 by time kill study in presence of fetal calf serum; format: functional, organism-based
[3] = tested on: Pseudomonas aeruginosa; assay: Antibacterial activity against Pseudomonas aeruginosa ATCC 27853 at >1 ug/mL after 48 hrs; format: functional, organism-based
[4] = tested on: Pseudomonas aeruginosa; assay: Bacteriostatic activity against Pseudomonas aeruginosa ATCC 27853 by time kill study in presence of fetal calf serum; format: functional, organism-based
[5] = tested on: Enterococcus faecium; assay: Bacteriostatic activity against vancomycin-resistant Enterococcus faecium DSM 17050 by time kill study in presence of fetal calf serum; format: functional, organism-based
[6] = tested on: Staphylococcus aureus; assay: Antibacterial activity against methicillin-resistant Staphylococcus aureus ATCC 33592 at >1 ug/mL after 48 hrs; format: functional, organism-based
[7] = tested on: Enterococcus faecium; assay: Antibacterial activity against vancomycin-resistant Enterococcus faecium DSM 17050; format: functional
[8] = tested on: Escherichia coli; assay: Bacteriostatic activity against Escherichia coli ATCC 35218 expressing LacR by time kill study in presence of fetal calf serum; format: functional, organism-based
[9] = tested on: Streptococcus pneumoniae; assay: Antibacterial activity against penicillin-resistant Streptococcus pneumoniae DSM 11865 at >1 ug/mL after 48 hrs; format: functional, organism-based
[10] = tested on: Staphylococcus aureus; assay: Antibacterial activity against methicillin-resistant Staphylococcus aureus ATCC 33592; format: functional
[11] = tested on: Enterococcus faecium; assay: Antibacterial activity against vancomycin-resistant Enterococcus faecium DSM 17050 at >1 ug/mL after 48 hrs; format: functional, organism-based
[12] = tested on: Staphylococcus aureus; assay: Bacteriostatic activity against methicillin-resistant Staphylococcus aureus ATCC 33592 by time kill study in presence of fetal calf serum; format: functional, organism-based
[13] = tested on: Streptococcus pneumoniae; assay: Antibacterial activity against penicillin-resistant Streptococcus pneumoniae DSM 11865; format: functional
[14] = tested on: Escherichia coli; assay: Antibacterial activity against Escherichia coli ATCC 35218 expressing LacR; format: functional
[15] = tested on: Escherichia coli; assay: Antibacterial activity against Escherichia coli ATCC 35218 expressing LacR at >1 ug/mL after 48 hrs; format: functional, organism-based
[16] = tested on: Escherichia coli; assay: Bacteriostatic activity against Escherichia coli ATCC 35218 expressing LacR by time kill study; format: functional, organism-based
[17] = tested on: Pseudomonas aeruginosa; assay: Bacteriostatic activity against Pseudomonas aeruginosa ATCC 27853 by time kill study; format: functional, organism-based
[18] = Enterococcus faecium, DSM 17050
[19] = Staphylococcus aureus, ATCC 33592
[20] = Streptococcus pneumoniae, DSM 11865

SMILES | IC80 [1] [µM] | Activity [2] | Activity [3] | Activity [4] | Activity [5] | Activity [6] | IC80 [7, 18] [µM] | Activity [8] | Activity [9] | IC80 [10, 19] [µM] | Activity [11] | Activity [12] | IC80 [13, 20] [µM] | IC80 [14] [µM] | Activity [15] | IC80 [13] [µM] | Activity [16] | Activity [17] | IC80 [7] [µM] | IC80 [10] [µM]
CCCCCCc1c(O)c(Cl)cc2c1O[C@@]1(C2=O)C(Cl)=C(Cl)C(=O)N1C | > 30 | inactive | Active | inactive | inactive | Active | 6.7 | inactive | Active | 1.4 | Active | inactive | 0.5 | > 30 | Active |  |  |  |  | 
CCCCCCc1c(O)c(Cl)cc2c1OC1(C2=O)C(Cl)=C(Cl)C(=O)N1C (racemic) | > 30 | inactive | Active | inactive | inactive | Active | 5.2 | inactive | Active | 3.1 | Active | inactive | 1.3 | > 30 | Active |  |  |  |  | 
CCCCCCc1c(O)c(Cl)cc2c1O[C@]1(C2=O)C(Cl)=C(Cl)C(=O)N1C (stereo in doubt; form 1) [listing 1 of 2 here] | > 30 |  |  |  |  |  | 8.5 |  |  | 5.1 |  |  |  | > 30 |  | 1.7 |  |  |  | 
CCCCCCc1c(O)c(Cl)cc2c1O[C@]1(C2=O)C(Cl)=C(Cl)C(=O)N1C (stereo in doubt; form 1) [listing 2 of 2 here] |  | inactive | Active | inactive | inactive | Active |  | inactive | Active |  | Active | inactive |  |  | Active |  | Dose-dependent effect | Dose-dependent effect |  | 
CCCCCCc1c(O)c(Cl)cc2c1O[C@]1(C2=O)C(Cl)=C(Cl)C(=O)N1C (stereo in doubt; form 2) |  |  |  |  |  |  |  |  |  |  |  |  |  |  |  | 0.4 |  |  | 8.2 | 3.7
